Test results from ChEMBL document CHEMBL4699456 (Bioorg Med Chem Lett, 2020).

Columns and labels:
Format in all cases: ADME, organism-based
[1] = Oral bioavailability in BALB/c mouse at 10 mg/kg; details: in vivo
[2] = Volume of distribution at steady state in BALB/c mouse at 2 mg/kg, iv; details: in vivo, read-out: Vdss
[3] = Cmax in BALB/c mouse at 10 mg/kg, po; parameters: route oral, dose 10 mg/kg; details: in vivo
[4] = AUC in BALB/c mouse at 10 mg/kg, po; parameters: dose 10 mg/kg; details: in vivo

Row | bioavailability [1] [%] | Vd [2] [L/kg] | Cmax [3] [µM] | AUC [4] [µM·h] | SMILES
1 | 56 | 1.3 | 2.1 | 11.3 | O=C(O)[C@H]1CC[C@H](C(=O)N2CC[C@](c3ccc(C(OCc4c(F)cccc4F)(C(F)(F)F)C(F)(F)F)cc3)(S(=O)(=O)c3ccc(F)cc3)C2)CC1
2 | 101 | 1.7 | 4.9 | 36.8 | O=C(O)[C@H]1CC[C@H](C(=O)N2CC[C@](c3ccc(C(OCC4CCCCC4)(C(F)(F)F)C(F)(F)F)cc3)(S(=O)(=O)c3ccc(F)cc3)C2)CC1
